{
  "source": "patent US20210122781A1",
  "about": "“STAPLED PEPTIDES” (Agency for Science, Technology and Research, priority 2017, published 2021)",
  "key": {"[1]": {"test_system": "p53 protein levels", "assay": "p53 staining of spleens from p53 wild type mice after IP injection of peptide", "assay_type": "in vivo", "conditions": "normal p53 wild type mice, 40 mg/kg IP, spleens harvested 5 hours post injection, late- vs early-eluting isomer", "procedure": "FIG. 5. Spleen samples of wildtype-p53 mice harvested 5 hours after intraperitoneal injection with either DMSO (vehicle) or the early or late eluting isomer of stapled peptides VIP82, VIP115 or VIP116. […] A subset of the peptide analogues was subsequently assessed for their ability to stabilise p53 protein levels in proliferating cells. In particular, lysine-containing peptides were chosen due to their enhanced solubility in biological buffers. Normal p53 wild type mice were administered with either vehicle (DMSO) or 40 mg/kg of peptide via IP. Spleens were then harvested 5 hours post injection and histological samples were processed for p53 staining (FIG. 5)."}, "[2]": {"test_system": "p53 stabilization", "assay": "p53 IHC staining of spleen and tumour from C57BL/6 mice bearing B16F10 melanoma allograft", "assay_type": "in vivo", "conditions": "C57BL/6 mice with B16F10 melanoma allograft, 40 mg/kg intraperitoneal, harvested 6 hours post injection, listed as VIP116 late-eluting isomer", "procedure": "FIG. 6. Photomicrographs of (A) spleen and (B) tumour samples from C57BL/6 mice after treatment with DMSO vehicle or p53-stabilising stapled peptide isomers VIP116 (both early-eluting and late-eluting isomers) and ATSP-7041 (late-eluting isomer only).\nThe stapled peptides VIP116 (both early-eluting and late-eluting isomers) and ATSP-7041 (late-eluting isomer) were injected into C57BL/6 mice bearing an allograft tumour (B16F10 melanoma cells) via intraperitoneal injection at a dose of 40 mg/kg. The spleen and tumour were both harvested from the mice 6 hours post injection. The p53 stabilization was detected and visualised in harvested tissue samples by p53 IHC staining (FIG. 6). A vehicle (2% DMSO in HBSS buffer) was used as a control."}},
  "note": "“Also recorded” adds a separate entry of the source. Bridge positions count the residues as written; N and C are the ends. Square brackets hold non-standard residues; d marks the D form. Peptide text beside a SMILES is read from it. R8 = C=CCCCCCC[C@@](C)(N)C(=O)O; S5 = C=CCCC[C@](C)(N)C(=O)O; Ahx = NCCCCCC(=O)O",
  "data": [
    {"molecule": "CC(=O)N[C@@H](CCCCN)C(=O)N[C@@H](CCCCN)C(=O)NCCCCCC(=O)N[C@H](C(=O)N[C@@H](CO)C(=O)N[C@@H](Cc1ccccc1)C(=O)N[C@]1(C)CCCCCC/C=C/CCC[C@@](C)(C(=O)N[C@@H](CCC(=O)O)C(=O)N[C@@H](CC(N)=O)C(=O)N[C@@H](Cc2ccccc2)C(N)=O)NC(=O)[C@H](CC(C)C)NC(=O)[C@H](CC(C)C)NC(=O)[C@H](C)NC(=O)[C@H](Cc2c[nH]c3ccccc23)NC(=O)[C@H](Cc2ccc(O)cc2)NC(=O)[C@H](CCC(=O)O)NC1=O)[C@@H](C)O", "note": "[VIP82-Late] (Ac-KK[Ahx]TSF[R8]EYWALL[S5]ENF-NH2; staple (E) 7-14)", "values": [
      {"measurement": "p53 protein level / expression in spleen (p53 staining)", "setting": "[1]; listed as VIP82 late eluting isomer, 40 mg/kg", "result": "higher in the late eluting isomer"},
      {"measurement": "p53 protein level / expression in spleen (p53 staining)", "setting": "[1]; listed as VIP82 late-eluting isomer, 40 mg/kg", "result": "higher concentration of p53 in mouse tissues compared to the early-eluting isomer"}
    ]},
    {"molecule": "CC(=O)N[C@@H](CCCCN)C(=O)N[C@@H](CCCCN)C(=O)N[C@@H](CCCCN)C(=O)NCCCCCC(=O)N[C@H](C(=O)N[C@@H](CO)C(=O)N[C@@H](Cc1ccccc1)C(=O)N[C@]1(C)CCCCCC/C=C/CCC[C@@](C)(C(=O)N[C@@H](CCC(=O)O)C(=O)N[C@@H](CC(N)=O)C(=O)N[C@@H](Cc2ccccc2)C(N)=O)NC(=O)[C@H](CC(C)C)NC(=O)[C@H](CC(C)C)NC(=O)[C@H](C)NC(=O)[C@H](Cc2c[nH]c3ccccc23)NC(=O)[C@H](Cc2ccc(O)cc2)NC(=O)[C@H](CCC(=O)O)NC1=O)[C@@H](C)O", "note": "[VIP115-Late] (Ac-KKK[Ahx]TSF[R8]EYWALL[S5]ENF-NH2; staple (E) 8-15)", "values": [
      {"measurement": "p53 protein level / expression in spleen (p53 staining)", "setting": "[1]; listed as VIP115 late eluting isomer, 40 mg/kg", "result": "higher in the late eluting isomer"},
      {"measurement": "p53 protein level / expression in spleen (p53 staining)", "setting": "[1]; listed as VIP115 late-eluting isomer, 40 mg/kg", "result": "higher concentration of p53 in mouse tissues compared to the early-eluting isomer"}
    ]},
    {"molecule": "CC(=O)N[C@@H](CCCCN)C(=O)NCCCCCC(=O)N[C@H](C(=O)N[C@@H](CO)C(=O)N[C@@H](Cc1ccccc1)C(=O)N[C@]1(C)CCCCCC/C=C/CCC[C@@](C)(C(=O)N[C@@H](CCC(=O)O)C(=O)N[C@@H](CC(N)=O)C(=O)N[C@@H](Cc2ccccc2)C(N)=O)NC(=O)[C@H](CC(C)C)NC(=O)[C@H](CC(C)C)NC(=O)[C@H](C)NC(=O)[C@H](Cc2c[nH]c3ccccc23)NC(=O)[C@H](Cc2ccc(O)cc2)NC(=O)[C@H](CCC(=O)O)NC1=O)[C@@H](C)O", "note": "[VIP116-Late]", "values": [
      {"measurement": "p53 protein level / expression in spleen (p53 staining)", "setting": "[1]", "result": "as active as the early-isomer"},
      {"measurement": "p53 activation response (p53 IHC staining) in spleen and tumour", "setting": "[2]", "result": "higher p53 activation response in both spleen and tumour samples; also recorded: more potent than the late-eluting isomer of ATSP-7041"}
    ]}
  ]
}
